{
  "source": "paper PMC2587488",
  "about": "(Journal of pineal research, 2008)",
  "key": {"[1]": {"tested_on": "mitochondrial cytochrome P450s", "experiment": "in vitro", "settings": "rat, pH 7.4, inhibition of melatonin O-demethylation (NAS formation)"}, "[2]": {"tested_on": "CYP1A2", "settings": "liver slices and microsomes of treated rats; cited from earlier work"}, "[3]": {"tested_on": "rat microsomal cytochrome P450s", "settings": "microsomes"}, "[4]": {"tested_on": "mitochondrial cytochrome P450s", "settings": "mitochondria"}, "[5]": {"tested_on": "human liver microsomes", "settings": "cited from earlier work"}, "[6]": {"tested_on": "rat microsomal cytochrome P450s", "experiment": "in vitro", "settings": "microsomes, pH 7.4, inhibition of melatonin O-demethylation (NAS formation)"}, "[7]": {"tested_on": "rat liver postmitochondrial supernatant", "settings": "cited from earlier work"}, "[8]": {"tested_on": "NADH oxidase", "settings": "isolated rat liver mitochondria; cited from earlier work"}, "[9]": {"settings": "6-HMel formation from melatonin"}},
  "note": "Read-outs that look alike come from different tables or passages of the source.",
  "data": [
    {"smiles": "Nc1ccc(S(=O)(=O)Nc2ccnn2-c2ccccc2)cc1", "note": "[sulfaphenazole]", "values": [
      {"measurement": "inhibition at 60 min, 10 μM", "setting": "[1]", "value": 27, "unit": "%"}
    ]},
    {"smiles": "O=c1cc(-c2ccccc2)oc2c1ccc1ccccc12", "note": "[α-naphthoflavone]", "values": [
      {"measurement": "increase in melatonin conversion to 6-sulphatoxymelatonin", "setting": "[2]", "value": 3, "unit": "fold"}
    ]},
    {"smiles": "COc1ccc2[nH]cc(CCNC(C)=O)c2c1", "note": "[melatonin, N-acetyl-5-methoxytryptamine]", "values": [
      {"measurement": "Km1 (high affinity component)", "setting": "[3]; [9]", "value": "48.33 ± 9.17", "unit": "µM"},
      {"measurement": "Km2 (low affinity component)", "setting": "[3]; [9]", "value": "496.8 ± 53.78", "unit": "µM"},
      {"measurement": "Km1 (high affinity component)", "setting": "[3]; NAS formation from melatonin", "value": "25.86 ± 1.39", "unit": "µM"},
      {"measurement": "Km2 (low affinity component)", "setting": "[3]; NAS formation from melatonin", "value": "953.3 ± 85.95", "unit": "µM"},
      {"measurement": "Km2 (low affinity component)", "setting": "[4]; [9]", "value": "406.6 ± 19.84", "unit": "µM"},
      {"measurement": "Km1 (high affinity component)", "setting": "[4]; NAS formation from melatonin", "value": "13.96 ± 2.37", "unit": "µM"}
    ]},
    {"smiles": "C=C[C@H]1C[N@@]2CC[C@H]1C[C@@H]2[C@@H](O)c1ccnc2ccc(OC)cc12", "note": "[Quinidine, quinidine]", "values": [
      {"measurement": "inhibition of melatonin metabolism", "setting": "[5]", "value": "only weak inhibitors"},
      {"measurement": "inhibition at 60 min, 5 μM", "setting": "[6]", "value": 38, "unit": "%"},
      {"measurement": "inhibition at 60 min, 5 μM", "setting": "[1]", "value": 33, "unit": "%"}
    ]},
    {"smiles": "Cc1nc2c([nH]1)c(=O)n(C)c(=O)n2Cc1ccco1", "note": "[Furafylline, furafylline]", "values": [
      {"measurement": "inhibition of the conversion of melatonin to 6-sulphatoxymelatonin", "setting": "[7]", "value": "inhibited markedly"},
      {"measurement": "inhibition at 60 min, 20 μM", "setting": "[6]", "value": 27, "unit": "%"},
      {"measurement": "inhibition at 60 min, 20 μM", "setting": "[1]", "value": 63, "unit": "%"}
    ]},
    {"smiles": "CC(=O)N1CCN(c2ccc(OCC3COC(Cn4ccnc4)(c4ccc(Cl)cc4Cl)O3)cc2)CC1", "note": "(stereo not shown) [Ketoconazole, ketoconazole]", "values": [
      {"measurement": "inhibition of NADH oxidase", "setting": "[8]", "value": "dose-dependent inhibition"},
      {"measurement": "inhibition of melatonin metabolism", "setting": "[5]", "value": "only weak inhibitors"},
      {"measurement": "inhibition at 60 min, 5 μM", "setting": "[6]", "value": 52, "unit": "%"},
      {"measurement": "inhibition at 60 min, 5 μM", "setting": "[1]", "value": 49, "unit": "%"}
    ]},
    {"smiles": "COc1ccc2[nH]c([S+]([O-])Cc3ncc(C)c(OC)c3C)nc2c1", "note": "(stereo not shown) [Omeprazole, omeprazole]", "values": [
      {"measurement": "inhibition at 60 min, 100 μM", "setting": "[6]", "value": 78, "unit": "%"},
      {"measurement": "inhibition at 60 min, 100 μM", "setting": "[1]", "value": 81, "unit": "%"}
    ]},
    {"smiles": "CCN(CC)C(=S)S", "note": "[Diethyldihydrocarbamate, diethyldithiocarbamate]", "values": [
      {"measurement": "inhibition at 60 min, 50 μM", "setting": "[6]", "value": 38, "unit": "%"},
      {"measurement": "inhibition at 60 min, 50 μM", "setting": "[1]", "value": 74, "unit": "%"}
    ]}
  ]
}
